PubChem BioAssay (NCI)
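Briefly, cells in 96-well plates were exposed to five compound concentrations for 48 h, and endpoints were estimated by linear interpolation. Here, GI50 denotes the concentration required for 50% inhibition of growth. Definition used: TGI = concentration required for complete inhibition of growth.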

What was measured:
Assay in all cases: NCI anticancer screen, dose series, 48 h
[1] = test system: NCI-H522 lung
[2] = test system: DU-145 prostate
[3] = test system: T-47D breast
[4] = test system: KM12 colon
[5] = test system: CAKI-1 renal
[6] = test system: SW-620 colon
[7] = test system: IGROV1 ovarian
[8] = test system: NCI-H23 lung
[9] = test system: HL-60(TB) leukemia
[10] = test system: HOP-62 NSCLC
[11] = test system: UO-31 renal
[12] = test system: SF-268 CNS
[13] = test system: EKVX NSCLC
[14] = test system: PC-3 prostate
[15] = test system: MDA-MB-435
[16] = test system: SR leukemia
[17] = test system: HT29 colon
[18] = test system: SNB-19 CNS
[19] = test system: U251 CNS
[20] = test system: 786-0 renal
[21] = test system: A549 NSCLC
[22] = test system: OVCAR-4 ovarian
[23] = test system: COLO 205 colon
[24] = test system: BT-549 breast
[25] = test system: MCF7 breast
[26] = test system: NCI-H460 lung
[27] = test system: SN12C renal
[28] = test system: SK-MEL-28 melanoma
[29] = test system: HOP-92 NSCLC
[30] = test system: UACC-257 melanoma
[31] = test system: MDA-MB-231 breast
[32] = test system: OVCAR-5 ovarian
[33] = test system: SK-MEL-2 melanoma
[34] = test system: LOX IMVI melanoma
[35] = test system: SK-MEL-5 melanoma
[36] = test system: HS 578T breast
[37] = test system: HCT-15 colon
[38] = test system: MALME-3M melanoma
[39] = test system: A498 renal
[40] = test system: K-562 leukemia
[41] = test system: NCI/ADR-RES ovarian
[42] = test system: SNB-75 CNS
[43] = test system: NCI-H226 lung
[44] = test system: HCT-116 colon
[45] = test system: ACHN renal
[46] = test system: CCRF-CEM leukemia
[47] = test system: M14 melanoma
[48] = test system: OVCAR-3 ovarian
[49] = test system: SF-295 CNS
[50] = test system: RXF 393 renal
[51] = test system: SF-539 CNS
[52] = test system: RPMI-8226 leukemia
[53] = test system: TK-10 renal
[54] = test system: OVCAR-8 ovarian
[55] = test system: SK-OV-3 ovarian
[56] = test system: UACC-62 melanoma
[57] = test system: MOLT-4 leukemia
[58] = test system: HCC-2998 colon

Nc1nc(-c2ccc(Cl)cc2)cc(-c2ccccc2)c1-c1nc2ccccc2o1
GI50 [1]: 9.5 µM | TGI [1]: 33.9 µM | GI50 [2]: 7.68 µM | TGI [2]: 30.4 µM | GI50 [3]: 10.2 µM | TGI [3]: 27.2 µM | GI50 [4]: 2.65 µM | TGI [4]: 8.17 µM | GI50 [5]: 12.2 µM | TGI [5]: 28.6 µM | GI50 [6]: 13.4 µM | TGI [6]: 31.1 µM | GI50 [7]: 12.5 µM | TGI [7]: 49 µM | GI50 [8]: 6.24 µM | TGI [8]: 34.6 µM | GI50 [9]: 3.47 µM | TGI [9]: 9.23 µM | GI50 [10]: 2.92 µM | TGI [10]: 7.47 µM | GI50 [11]: 10.3 µM | TGI [11]: 26.4 µM | GI50 [12]: 6.38 µM | TGI [12]: 67.2 µM | GI50 [13]: 12.4 µM | TGI [13]: 28 µM | GI50 [14]: 4.62 µM | TGI [14]: 16.8 µM | GI50 [15]: 9.45 µM | TGI [15]: 26.9 µM | GI50 [16]: 3.37 µM | TGI [16]: 8.97 µM | GI50 [17]: 5.99 µM | TGI [17]: 39.1 µM | GI50 [18]: 18.6 µM | TGI [18]: 44.6 µM | GI50 [19]: 4.49 µM | TGI [19]: 18.7 µM | GI50 [20]: 4.52 µM | TGI [20]: 19.8 µM | GI50 [21]: 5.9 µM | TGI [21]: > 100 µM | GI50 [22]: 11.5 µM | TGI [22]: 28 µM | GI50 [23]: 19.1 µM | TGI [23]: 35.9 µM | GI50 [24]: 13.5 µM | TGI [24]: 28.3 µM | GI50 [25]: 3.1 µM | TGI [25]: > 100 µM | GI50 [26]: 3.98 µM | TGI [26]: > 100 µM | GI50 [27]: 3.05 µM | TGI [27]: 9.29 µM | GI50 [28]: 15.2 µM | TGI [28]: 34 µM | GI50 [29]: 2.19 µM | TGI [29]: 6.18 µM | GI50 [30]: 15.3 µM | TGI [30]: 35.3 µM | GI50 [31]: 5.02 µM | TGI [31]: 17.8 µM | GI50 [32]: 19.8 µM | TGI [32]: 54.7 µM | GI50 [33]: 15.5 µM | TGI [33]: 39.2 µM | GI50 [34]: 2.42 µM | TGI [34]: 5.77 µM | GI50 [35]: 14.6 µM | TGI [35]: 29.4 µM | GI50 [36]: 12.7 µM | TGI [36]: 40.9 µM | GI50 [37]: 6.15 µM | TGI [37]: 28.3 µM | GI50 [38]: 10.3 µM | TGI [38]: 33.4 µM | GI50 [39]: 15.8 µM | TGI [39]: 30.5 µM | GI50 [40]: 3.69 µM | TGI [40]: > 100 µM | GI50 [41]: 5.46 µM | TGI [41]: > 100 µM | GI50 [42]: 10.5 µM | TGI [42]: 24.5 µM | GI50 [43]: 15.1 µM | TGI [43]: 31.3 µM | GI50 [44]: 3.21 µM | TGI [44]: 9.17 µM | GI50 [45]: 8.8 µM | TGI [45]: 23.3 µM | GI50 [46]: 4.2 µM | TGI [46]: 33.6 µM | GI50 [47]: 10.4 µM | TGI [47]: 26.2 µM | GI50 [48]: 7.29 µM | TGI [48]: 27.3 µM | GI50 [49]: 15 µM | TGI [49]: 35.6 µM | GI50 [50]: 3.69 µM | TGI [50]: 16.9 µM | GI50 [51]: 16.1 µM | TGI [51]: 32.2 µM | GI50 [52]: 6.9 µM | TGI [52]: 23 µM | GI50 [53]: 3.02 µM | TGI [53]: 8.95 µM | GI50 [54]: 14.1 µM | TGI [54]: 54.1 µM | GI50 [55]: 15.4 µM | TGI [55]: 32.4 µM | GI50 [56]: 15.8 µM | TGI [56]: 30.7 µM | GI50 [57]: 3.3 µM | TGI [57]: 11.4 µM | GI50 [58]: 8.39 µM | TGI [58]: 34 µM
